For 19 compounds, Ki results are on record in patent US10195201B2, “Heteroaryl-pyrimidinone compounds as PDE2 inhibitors” (Merck Sharp & Dohme Corp., priority 2015, dated 2019).

The structures appear in SMILES notation. Like-named read-outs stand apart in the source and are kept apart here.

One assay has as its target Rhesus PDE2A3 (Macaca mulatta, UniProt B3VTJ2). Nature of the assay: PDE2 fluorescence polarization (IMAP FP) inhibition assay, rhesus enzyme. The class given is biochemical, rhesus macaque. The protocol:
(§1) The activity of the compounds in accordance with the present invention as PDE2 inhibitors may be readily determined using a fluorescence polarization (FP) methodology (Huang, W., et al., J. Biomol Screen, 2002, 7: 215).
In a typical experiment the PDE2 inhibitory activity of the compounds of the present invention was determined in accordance with the following experimental method. Rhesus PDE2A3 was amplified from rhesus macaque brain cDNA (Biochain Institute, Hayward, Calif.) using primers based on human PDE2A sequence (accession NM_002599.3) where the forward primer containing a Kozak consensus was 5′-[…]-3′ and the reverse primer was 5′-[…]-3′. Amplification with Easy-A High-Fidelity PCR cloning enzyme (Stratagene, La Jolla, Calif.) was 95° C. for 2 minutes followed by thirty three cycles of 95° C. for 40 seconds, 52° C. for 30 seconds, and 72° C. for 2 minutes 48 seconds. Final extension was 72° C. for 7 minutes. The PCR product was TA cloned into pcDNA3.3-TOPO (Invitrogen, Carlsbad, Calif.) according to standard protocol. A consensus sequence was developed from multiple clones and then deposited into GenBank (EU812167). AD293 cells (Stratagene, La Jolla, Calif.) with 70-80% confluency were transiently transfected with rhesus PDE2A3/pcDNA3.3-TOPO using Lipofectamine 2000 according to manufacturer specifications (Invitrogen, Carlsbad, Calif.). Cells were harvested 48 hours post-transfection and lysed by sonication (setting 3, 10×5 sec pulses) in a buffer containing 20 mM HEPES pH 7.4, 1 mM EDTA and Complete Protease Inhibitor Cocktail Tablets (Roche, Indianapolis, Ind.). Lysate was collected by centrifugation at 75,000×g for 20 minutes at 4° C. and supernatant utilized for evaluation of PDE2 activity. The fluorescence polarization assay for cyclic nucleotide phosphodiesterases was performed using an IMAP® FP kit supplied by Molecular Devices, Sunnyvale, Calif. (product # R8139). […] Assays were performed at room temperature in 384-well microtiter plates with an incubation volume of 20.2 μL. Solutions of test compounds were prepared in DMSO and serially diluted with DMSO to yield 8 μL of each of 10 solutions differing by 3-fold in concentration, at 32 serial dilutions per plate. […] 0% of inhibition is determined by using DMSO (1% final concentrations).
A Labcyte Echo 555 (Labcyte, Sunnyvale, Calif.) is used to dispense 200 nL from each well of the titration plate to the 384 well assay plate. Ten microliters of a solution of enzyme (1/2000 final dilution from aliquots; sufficient to produce 20% substrate conversion) was added to the assay plate. Next 10 uL of a separate solution of the substrate FAM-labeled cAMP (50 nM final concentration product # R7506 from Molecular Devices) and the activator cGMP (1 uM final concentration), prepared in the assay buffer (10 mM Tris HCl, pH 7.2, 10 mM MgCl2, 0.05% NaN3 0.01% Tween-20, and 1 mM DTT) was added to the assay plate and shaken to mix. The reaction is allowed to proceed at room temperature for 60 minutes. A binding solution is then made from the kit components, comprised of 80% Solution A, 20% Solution B and binding reagent at a volume of 1/600 the total binding solution. The enzymatic reaction is stopped by addition of 60 μL of the binding solution to each well of the assay plates and the plates are sealed and shaken for 30 seconds. The plate was incubated at room temperature for at least one hour prior to determining the fluorescence polarization (FP). The parallel and perpendicular fluorescence of each well of the plate was measured using a Tecan Genios Pro plate reader (Tecan, Switzerland) or Perkin Elmer EnVision™ plate reader (Waltham, Mass.). Fluorescence polarization (mP) was calculated from the parallel (S) and perpendicular (P) fluorescence of each sample well and the analogous values for the median control well, containing only substrate (So and Po), using the following equation: Polarization (mP)=1000*(S/So−P/Po)/(S/So+P/Po).

Another assay deals with human PDE2A1 (Homo sapiens (Human), UniProt O00408). Description: PDE2 fluorescence polarization (IMAP FP) inhibition assay, human enzyme. The class given is biochemical. To be noted: LabB; read-out: hPDE2 Ki (nM) LabB. The protocol:
as §1
Selectivity for PDE2, as compared to other PDE families, was assessed using the IMAPR technology. Human PDE10A2 enzyme was prepared from cytosolic fractions of transiently transfected HEK cells. All other PDE's were GST Tag human enzyme expressed in insect cells and were obtained from BPS Bioscience (San Diego, Calif.): PDE1A (Cat#60010), human PDE2A1(Cat#60020), PDE3A (Cat#60030), PDE4A1A (Cat#60040), PDE5A1 (Cat#60050), PDE6C (Cat#60060), PDE7A (Cat#60070), PDE8A1 (Cat#60080), PDE9A2 (Cat#60090), PDE11A4 (Cat#60110).
Assays for PDE 1 through 11 were performed in parallel at room temperature in 384-well microtiter plates with an incubation volume of 20.2 μL. Solutions of test compounds were prepared in DMSO and serially diluted with DMSO to yield 30 μL of each of ten solutions differing by 3-fold in concentration, at 32 serial dilutions per plate. […] A Labcyte POD 810 (Labcyte, Sunnyvale, Calif.) was used to dispense 200 nL from each well of the titration plate to make eleven copies of the assay plate for each titration, one copy for each PDE enzyme. A solution of each enzyme (dilution from aliquots, sufficient to produce 20% substrate conversion) and a separate solution of FAM-labeled cAMP or FAM-labeled cGMP from Molecular Devices (Sunnyvale, Calif., product # R7506 or cGMP#R7508), at a final concentration of 50 nM were made in the assay buffer (10 mM Tris HCl, pH 7.2, 10 mM MgCl2, 0.05% NaN3 0.01% Tween-20, and 1 mM DTT). Note that the substrate for PDE2 is 50 nM FAM cAMP containing 1000 nM of cGMP. The enzyme and the substrate were then added to the assay plates in two consecutive additions of 10 μL and then shaken to mix. The reaction was allowed to proceed at room temperature for 60 minutes. A binding solution was then made from the kit components, comprised of 80% Solution A, 20% Solution B and binding reagent at a volume of 1/600 the total binding solution. The enzymatic reaction was stopped by addition of 60 μL of the binding solution to each well of the assay plate. The plates were sealed and shaken for 10 seconds. The plates were incubated at room temperature for one hour, then the parallel and perpendicular fluorescence was measured using a Tecan Genios Pro plate reader (Tecan, Switzerland). The apparent inhibition constants for the compounds against all 11 PDE's was determined from the parallel and perpendicular fluorescent readings as described for PDE10 FP assay using the following apparent KM values for each enzyme and substrate combination: PDE1A (FAM cGMP) 70 nM, human PDE2A1 (FAM cAMP) 10,000 nM, PDE3A (FAM cAMP) 50 nM, PDE4A1A (FAM cAMP) 1500 nM, PDE5A1 (FAM cGMP) 400 nM, PDE6C (FAM cGMP) 700 nM, PDE7A (FAM cAMP) 150 nM, PDE8A1 (FAM cAMP) 50 nM, PDE9A2 (FAM cGMP) 60 nM, […] (FAM cAMP) 150 nM, PDE11A4 (FAM cAMP) 1000 nM. The intrinsic PDE2 inhibitory activity of a compound which may be used in accordance with the present invention may be determined by these assays. […]

Where [1] appears, read: LabA, read-out: rhPDE2 Ki (nM) LabA.
[2] abbreviates: LabB, read-out: rhPDE2 Ki (nM) LabB.

Sequence of Rhesus PDE2A3 (B3VTJ2 1-941): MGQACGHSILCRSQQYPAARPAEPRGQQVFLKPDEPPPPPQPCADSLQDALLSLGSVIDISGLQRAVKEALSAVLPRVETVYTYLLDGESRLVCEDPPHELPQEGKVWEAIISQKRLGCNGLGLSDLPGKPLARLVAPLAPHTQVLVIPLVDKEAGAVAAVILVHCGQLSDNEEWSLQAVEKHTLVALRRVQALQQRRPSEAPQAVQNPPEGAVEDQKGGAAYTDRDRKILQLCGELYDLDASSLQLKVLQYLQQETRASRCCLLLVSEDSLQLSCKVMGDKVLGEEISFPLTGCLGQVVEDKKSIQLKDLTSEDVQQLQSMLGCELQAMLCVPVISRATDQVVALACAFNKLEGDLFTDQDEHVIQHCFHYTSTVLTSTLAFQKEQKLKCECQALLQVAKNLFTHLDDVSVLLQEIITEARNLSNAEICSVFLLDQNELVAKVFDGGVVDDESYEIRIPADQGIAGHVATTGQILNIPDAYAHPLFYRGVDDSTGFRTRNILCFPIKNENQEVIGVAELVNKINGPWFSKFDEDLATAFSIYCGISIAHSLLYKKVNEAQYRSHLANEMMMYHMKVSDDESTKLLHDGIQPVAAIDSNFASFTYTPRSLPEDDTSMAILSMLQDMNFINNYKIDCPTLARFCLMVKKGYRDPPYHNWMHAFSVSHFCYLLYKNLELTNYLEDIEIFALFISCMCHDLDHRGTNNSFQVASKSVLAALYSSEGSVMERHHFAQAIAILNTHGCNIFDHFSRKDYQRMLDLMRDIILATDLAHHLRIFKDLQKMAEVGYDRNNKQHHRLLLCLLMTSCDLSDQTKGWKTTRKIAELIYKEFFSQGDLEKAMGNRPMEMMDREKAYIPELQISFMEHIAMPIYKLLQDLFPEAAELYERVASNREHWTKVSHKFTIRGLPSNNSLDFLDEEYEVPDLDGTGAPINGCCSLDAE
Sequence of human PDE2A1 (O00408 other isoform, or with tags, fused parts or gaps): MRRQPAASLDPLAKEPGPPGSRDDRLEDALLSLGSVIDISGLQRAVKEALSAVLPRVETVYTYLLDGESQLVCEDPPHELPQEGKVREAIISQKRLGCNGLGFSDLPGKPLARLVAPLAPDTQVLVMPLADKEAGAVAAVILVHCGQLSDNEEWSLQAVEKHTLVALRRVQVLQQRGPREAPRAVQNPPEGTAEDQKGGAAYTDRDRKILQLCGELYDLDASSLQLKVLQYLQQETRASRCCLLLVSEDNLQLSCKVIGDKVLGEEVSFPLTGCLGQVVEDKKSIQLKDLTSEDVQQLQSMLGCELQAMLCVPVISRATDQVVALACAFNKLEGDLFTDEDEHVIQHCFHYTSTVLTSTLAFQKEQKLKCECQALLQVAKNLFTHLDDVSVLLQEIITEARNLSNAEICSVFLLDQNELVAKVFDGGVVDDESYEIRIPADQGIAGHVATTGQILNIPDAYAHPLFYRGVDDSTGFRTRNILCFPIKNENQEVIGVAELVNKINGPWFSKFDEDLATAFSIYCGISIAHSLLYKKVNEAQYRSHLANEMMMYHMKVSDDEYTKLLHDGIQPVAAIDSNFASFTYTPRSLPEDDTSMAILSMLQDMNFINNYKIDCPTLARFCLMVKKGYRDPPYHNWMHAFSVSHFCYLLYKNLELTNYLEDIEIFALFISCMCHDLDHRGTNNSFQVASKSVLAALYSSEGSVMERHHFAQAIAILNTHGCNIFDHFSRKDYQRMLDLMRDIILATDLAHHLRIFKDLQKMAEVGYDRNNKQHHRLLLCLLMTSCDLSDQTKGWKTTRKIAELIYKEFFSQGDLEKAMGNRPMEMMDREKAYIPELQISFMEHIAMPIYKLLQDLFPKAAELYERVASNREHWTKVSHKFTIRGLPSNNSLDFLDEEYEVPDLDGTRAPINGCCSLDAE

As usually defined, the Ki is a measure of affinity in units of concentration, obtained from inhibition or displacement. Turning to `Cc1nc(-c2ncc(C(C)c3ccc(C(F)(F)F)cc3)[nH]2)cc(=O)[nH]1` (stereo not shown) [Example 13, 2-Methyl-6-(5-(1-(4-(trifluoromethyl)phenyl)ethyl)-1H-imidazol-2-yl)pyrimidin-4(3H)-one], the Ki is 868 nM on Rhesus PDE2A3 (setting [1]) and 631 nM at Rhesus PDE2A3 (setting [2]).
Turning to `Cc1nc(-c2cc(C(C)c3ccc(OC(F)F)c(F)c3)ncn2)cc(=O)[nH]1` (single isomer, unassigned) [Example 35, (S)- or (R)-6′-(1-(4-(difluoro-methoxy)-3-fluorophenyl)ethyl)-2-methyl-[4,4′-bipyrimidin]-6(1H)-one], the Ki at human PDE2A1 came to 232 nM.
`Cc1nc(-c2cn(C(c3ccc(C(F)(F)F)cc3F)C(C)C)cn2)cc(=O)[nH]1` (stereo not shown) [Example 21, 6-(1-(1-(2-Fluoro-4-(trifluoromethyl)phenyl)-2-methylpropyl)-1H-imidazol-4-yl)-2-methylpyrimidin-4(3H)-one]: the Ki at Rhesus PDE2A3 (setting [2]) was 110 nM.
Regarding `Cc1nc(-c2cncc(C(O)c3ccc(C(F)(F)F)cc3)c2)cc(=O)[nH]1` (stereo not shown) [Example 25, 6-(5-(Hydroxy(4-(trifluoromethyl)phenyl)methyl)pyridin-3-yl)-2-methylpyrimidin-4(3H)-one], at Rhesus PDE2A3 (setting [1]), the Ki stood at 12900 nM.
For the compound `Cc1nc(-c2cc([C@@H](C)c3ccc(C(F)(F)F)cc3F)ncn2)cc(=O)[nH]1` (single isomer, unassigned) [Example 30], the Ki on human PDE2A1 amounted to 39 nM.
In the case of `Cc1nc(-c2cc(C(C)c3ccc(C(F)(F)F)cc3)ccn2)cc(=O)[nH]1` (stereo not shown) [Example 22, 2-methyl-6-(4-(1-(4-(trifluoromethyl)phenyl)ethyl)pyridin-2-yl)pyrimidin-4(3H)-one], the Ki on Rhesus PDE2A3 (setting [1]) stood at 920 nM; at Rhesus PDE2A3 (setting [2]) it was 868 nM.
Consider `Cc1nc(-c2cn([C@H](C)c3ccc(C(F)(F)F)cc3F)cn2)cc(=O)[nH]1` (single isomer, unassigned) [Example 14], for which, on Rhesus PDE2A3 (setting [1]), the Ki was determined as 298 nM.
For `Cc1nc(-c2cn(C(C)c3ccc(C(F)(F)F)cc3)cn2)cc(=O)[nH]1` (single isomer, unassigned) [Example 16, (R)- or (S)-2-methyl-6-(1-(1-(4-(trifluoro-methyl)phenyl)ethyl)-1H-imidazol-4-yl) pyrimidin-4 (3H)-one], the inhibition constant Ki at Rhesus PDE2A3 (setting [1]) came to 340 nM.
`Cc1nc(-c2cncc(C(C)c3ccc(C(F)(F)F)cc3)n2)cc(=O)[nH]1` (stereo not shown) [Example 29, 2-Methyl-6-(6-(1-(4-(trifluoromethyl)phenyl)ethyl)pyrazin-2-yl)pyrimidin-4(3H)-one]: the Ki at Rhesus PDE2A3 (setting [1]) worked out at 1710 nM; at Rhesus PDE2A3 (setting [2]), 1660 nM.
Turning to `Cc1nc(-c2nc(C(C)c3ccc(C(F)(F)F)cc3)no2)cc(=O)[nH]1` (stereo not shown) [Example 12, 2-Methyl-6-(3-(1-(4-(trifluoromethyl)phenyl)ethyl)-1,2,4-oxadiazol-5-yl)pyrimidin-4(3H)-one], the results for the inhibition constant Ki on Rhesus PDE2A3 (setting [1]) and at Rhesus PDE2A3 (setting [2]) were 1870 nM and 2410 nM, respectively.
Regarding `Cc1nc(-c2nc(C(C)c3ccc(C(F)(F)F)cc3)cs2)cc(=O)[nH]1` (stereo not shown) [Example 3, 2-Methyl-6-(4-(1-(4-(trifluoromethyl)phenyl)ethyl)thiazol-2-yl)pyrimidin-4(3H)-one], the Ki on Rhesus PDE2A3 (setting [1]) amounted to 532 nM.
Consider `Cc1nc(-c2nnc([C@H](C)c3ccc(C(F)(F)F)cc3)o2)cc(=O)[nH]1` (single isomer, unassigned) [Example 10], for which the Ki was found to be 470 nM on Rhesus PDE2A3 (setting [1]) and 699 nM at Rhesus PDE2A3 (setting [2]).
With `CCC(c1ccc(C(F)(F)F)cc1F)n1cnc(-c2cc(=O)[nH]c(C)n2)c1` (stereo not shown) [Example 20, 6-(1-(1-(2-Fluoro-4-(trifluoromethyl)phenyl)propyl)-1H-imidazol-4-yl)-2-methylpyrimidin-4(3H)-one], the inhibition constant Ki on Rhesus PDE2A3 (setting [2]) stood at 123 nM.
Consider `Cc1nc(-c2cncc([C@@H](C)c3ccc(C(F)(F)F)cc3)c2)cc(=O)[nH]1` (single isomer, unassigned) [Example 23], for which the Ki at Rhesus PDE2A3 (setting [1]) was above 1000 nM.
The same measure, in the same setting: the figure for `Cc1nc(-c2cncc(C(C)(O)c3ccc(C(F)(F)F)cc3)c2)cc(=O)[nH]1` (stereo not shown) [Example 26, 6-(5-(1-Hydroxy-1-(4-(trifluoromethyl)phenyl)ethyl)pyridin-3-yl)-2-methylpyrimidin-4(3H)-one] is 1810 nM; for `Cc1nc(-c2cncc([C@@H](C)c3ccc(C(F)(F)F)cc3)c2)cc(=O)[nH]1` (single isomer, unassigned) [Example 24] it is 826 nM.
With `Cc1nc(-c2noc(C(C)c3ccc(C(F)(F)F)cc3)n2)cc(=O)[nH]1` (stereo not shown) [Example 11, 2-Methyl-6-(5-(1-(4-(trifluoromethyl)phenyl)ethyl)-1,2,4-oxadiazol-3-yl)pyrimidin-4(3H)-one], the Ki was 1080 nM on Rhesus PDE2A3 (setting [1]) and 1750 nM on Rhesus PDE2A3 (setting [2]).
`Cc1nc(-c2ccnc(C(C)(O)c3ccc(C(F)(F)F)cc3)c2)cc(=O)[nH]1` (stereo not shown) [Example 28, 6-(2-(1-hydroxy-1-(4-(trifluoromethyl)phenyl)ethyl)pyridin-4-yl)-2-methylpyrimidin-4(3H)-one]: the Ki at Rhesus PDE2A3 (setting [1]) turned out to be 2880 nM.
`Cc1nc(-c2ccnc(C(C)c3ccc(C(F)(F)F)cc3)c2)cc(=O)[nH]1` (stereo not shown) [Example 27, 2-Methyl-6-(2-(1-(4-(trifluoromethyl)phenyl)ethyl)pyridin-4-yl)pyrimidin-4(3H)-one]: the inhibition constant Ki at Rhesus PDE2A3 (setting [1]) came out at 1270 nM.
